≈ marks a conversion by molar mass, not a printed value. A value given as a limit tells only on which side of the number the result lay.

The text below walks through data of paper PMC12055641, “The Study of Antistaphylococcal Potential of Omiganan and Retro-Omiganan Under Flow Conditions” (Probiotics and Antimicrobial Proteins, 2024).

The test system of one test is S. aureus ATCC 25923. Nature of the test: microbe, parasite or virus in culture. The source says: (§1) Clinical S. aureus strains were collected from patients with atopic dermatitis during their visits to the Outpatient Clinic and hospitalization in the Department of Dermatology, Venereology and Allergology at Medical University of Gdańsk (following the approval from the ethics committee, Approval Number NKBBN/242–477/2014). Reference strains of S. aureus ATCC 25923, S. aureus ATCC 33591, S. aureus ATCC 9144, and S. aureus ATCC 12598 were obtained from the American Type Culture Collection. All the strains were stored at − 80 °C in Roti®-Store cryo vials (Carl Roth GmbH, Karlsruhe, Germany) and before the tests were transferred into fresh Mueller–Hinton Medium (BioMaxima, Lublin, Poland) and incubated for 24 h at 37 °C. Subsequently, each bacterial inoculum was seeded on Mueller–Hinton agar plates (BioMaxima) and incubated again for 24 h. The cultures prepared in this way were used in further antimicrobial assays. Minimum inhibitory concentrations (MICs) were determined according to the Clinical and Laboratory Standards Institute recommendations. […] The experiments were conducted on 96-well microtiter plates, with a final volume of 100 μL. Additionally, in the case of daptomycin, the medium was supplemented with Ca^2+ (50 mg/L). Cell densities were adjusted spectrophotometrically (Multiskan™ GO Microplate Spectrophotometer, Thermo Scientific) at 600 nm. The MICs were taken as the lowest drug concentration at which a visible growth of the microorganisms was inhibited. Minimum biofilm eliminating concentrations (MBECs) were determined on 96-well flat-bottomed microtiter polystyrene plates with resazurin (7-hydroxy-3H-phenoxazin-3-one 10-oxide sodium salt) as a cell viability reagent. To do this, the plates were filled with 100 μL of the initial inoculums of bacteria (0.5 × 10^7 CFU/mL) in the Mueller–Hinton broth and incubated for 24 h at 37 °C. […] After 24 h of incubation, 20 μL of resazurin (4 mg/mL) was added to each well and the MBEC values were read. Minimum biofilm inhibitory concentrations (MBICs) were also determined on 96-well flat-bottomed microtiter polystyrene plates as described previously. To do this, 50 μL of the compounds in the concentration range, diluted MHB, were prepared. Subsequently, the 50 μL of the staphylococcal inoculums were added to reach the same density of bacteria as that in the MBEC assay. After 24 h of incubation at 37 °C, the wells were rinsed three times with PBS and the fresh medium (100 μL) with resazurin (0.6 mg/mL) was added. Then, after 1 h of incubation, MBICs were read. […] All experiments were conducted in triplicate.
(§2) Formation of the biofilm inside the PDMS flow chambers was performed using three peristaltic pumps working simultaneously (LP-pump, Kamush, Lipopharm, Poland) and sterile Tygon® 3350 silicone hoses (2.4 × 0.8 × 0.8 mm) with a length of 30 and 50 cm for inlet and outlet, respectively. Bacterial suspensions were prepared (0.5 × 10^7 CFU/mL) in sterile 50-mL test tubes, which were placed in a heating block at 37 °C. Before experiments, all channels were assessed for tightness and sterilized using a 70% 2-propanol solution (10 min, flow rate 1 mL/min) and rinsed with sterile PBS solution (10 min, flow 0.1 mL/min). The formation of biofilm inside the channels was divided into three stages: (1) adhesion—at this stage S. aureus suspensions were passed through the channels for 4 h at a flow rate of 0.1 mL/min; (2) rinsing—the previously used hoses were replaced with new sterile ones, and the channels were rinsed with sterile PBS solution for 10 min at a flow rate of 0.1 mL/min; (3) biofilm growth—after flushing the channels, the silicone hoses were placed in tubes with MHB medium, which was passed through the channels for 24 h at a flow rate of 0.1 mL/min. All experiments included growth and sterility controls.
(§3) This assay was conducted also on the S. aureus ATCC 25923 and S. aureus 33,591 (MRSA) strains.

For test [1], the system named is S. aureus ATCC 33591 (MRSA). Nature of the test: microbe, parasite or virus in culture.
From the text: as §1, §2, §3

Test [2] relates to S. aureus clinical strain 004N (MRSA). On the set-up: method as in earlier work. The note with it: clinical isolate 004N (MRSA), nasal swab; cited from earlier work.
The test system of test [3] is S. aureus clinical strain 005S. Further details: method as in earlier work. The note with it: clinical isolate 005S, skin; cited from earlier work.
The subject of test [4] is S. aureus clinical strain 009S. On the set-up: method as in earlier work. The conditions noted are these: clinical isolate 009S, skin; cited from earlier work.
In test [5] the test system is S. aureus clinical strain 015N (MRSA). Further details: method as in earlier work. The conditions noted are these: clinical isolate 015N (MRSA), nasal swab; cited from earlier work.
The test system of test [6] is S. aureus clinical strain 030N. On the set-up: method as in earlier work. The note with it: clinical isolate 030N, nasal swab; cited from earlier work.
Test [7] relates to S. aureus clinical strain 031S. Further details: method as in earlier work. The note with it: clinical isolate 031S, skin; cited from earlier work.
The test system of test [8] is S. aureus clinical strain 043SC (MRSA). On the set-up: method as in earlier work. The note with it: clinical isolate 043SC (MRSA), skin of patient with furuncle folliculitis; cited from earlier work.
Test [9] has as its system S. aureus clinical strain 051N (MRSA). Further details: method as in earlier work. The note with it: clinical isolate 051N (MRSA), nasal swab; cited from earlier work.
The test system of test [10] is S. aureus clinical strain 060S. On the set-up: method as in earlier work. The conditions noted are these: clinical isolate 060S, skin; cited from earlier work.
[11] abbreviates: S. aureus 25923 biofilm treated under flow with Retro-Omiganan (half MBEC) for 24 h.
Where [12] appears, read: S. aureus 25923 biofilm treated under flow with Retro-Omiganan (half MBEC) for 48 h.
[13] abbreviates: S. aureus 25923 biofilm treated under flow with Retro-Omiganan (half MBEC) for 72 h.
[14] abbreviates: Staphylococcus aureus, ATCC25923, 0 h.
Setting [15] is: Staphylococcus aureus, ATCC25923, 24 h.
Setting [16] is: Staphylococcus aureus, ATCC25923, 48 h.
The mark [17] stands for this setting: Staphylococcus aureus, ATCC25923, 72 h.
[18] abbreviates: S. aureus ATCC 33591 (MRSA) biofilm treated under flow with Retro-Omiganan (half MBEC) for 24 h.
Setting [19] is: S. aureus ATCC 33591 (MRSA) biofilm treated under flow with Retro-Omiganan (half MBEC) for 48 h.
[20] abbreviates: S. aureus ATCC 33591 (MRSA) biofilm treated under flow with Retro-Omiganan (half MBEC) for 72 h.

`CC(=O)NC[C@H]1CN(c2ccc(N3CCOCC3)c(F)c2)C(=O)O1` [Linezolid]: the MIC came out at 1.0 µg/mL (≈ 2.96 µM) with S. aureus ATCC 25923 (setting [11]); 1.0 µg/mL (≈ 2.96 µM) in the test on S. aureus ATCC 25923 (setting [12]); 1.0 µg/mL (≈ 2.96 µM) in the test with S. aureus ATCC 25923 (setting [13]); 1 µg/mL (≈ 2.96 µM) with S. aureus ATCC 25923 (setting [14]); 1 µg/mL (≈ 2.96 µM) in the test on S. aureus ATCC 25923 (setting [15]); 1 µg/mL (≈ 2.96 µM) in the test on S. aureus ATCC 25923 (setting [16]). Moreover, the MIC with S. aureus ATCC 25923 (setting [17]) was 1 µg/mL (≈ 2.96 µM); in [1] (setting [18]) it was 1.0 µg/mL (≈ 2.96 µM); in [1] (setting [19]) it was 1.0 µg/mL (≈ 2.96 µM); in test [1] (setting [20]) it was 1.0 µg/mL (≈ 2.96 µM); in [1] (Staphylococcus aureus, 0 h) it was 1 µg/mL (≈ 2.96 µM); in [1] (Staphylococcus aureus, 24 h), 1 µg/mL (≈ 2.96 µM). Further, the MIC in [1] (Staphylococcus aureus, 48 h) stood at 1 µg/mL (≈ 2.96 µM); in [1] (Staphylococcus aureus, 72 h) it was 1 µg/mL (≈ 2.96 µM). The “Antimicrobial susceptibility (MIC)” value was 1 µg/mL in test [2]; 0.5 µg/mL in [3]; 0.25 µg/mL in [4]; 2 µg/mL in test [5]; 0.5 µg/mL in test [6]; 2 µg/mL in [7]. The “Antimicrobial susceptibility (MIC)” value is listed as 2 µg/mL in [8], 2 µg/mL in test [9] and 1 µg/mL in [10].
As for `CCCCCCCCCC(=O)N[C@@H](Cc1c[nH]c2ccccc12)C(=O)N[C@H](CC(N)=O)C(=O)N[C@@H](CC(=O)O)C(=O)N[C@@H]1C(=O)NCC(=O)N[C@@H](CCCN)C(=O)N[C@@H](CC(=O)O)C(=O)N[C@H](C)C(=O)N[C@@H](CC(=O)O)C(=O)NCC(=O)N[C@H](CO)C(=O)N[C@@H]([C@H](C)CC(=O)O)C(=O)N[C@@H](CC(=O)c2ccccc2N)C(=O)O[C@@H]1C` [Daptomycin], the MIC against S. aureus ATCC 25923 (Staphylococcus aureus, ATCC25923, 0 h, S. aureus 25923, time 0 h (baseline, before peptide exposure)) came out at 2 µg/mL (≈ 1.23 µM); with S. aureus ATCC 25923 (Staphylococcus aureus, ATCC25923, 24 h, S. aureus 25923 biofilm treated under flow with Omiganan (half MBEC) for 24 h), 2 µg/mL (≈ 1.23 µM); against S. aureus ATCC 25923 (Staphylococcus aureus, ATCC25923, 24 h, S. aureus 25923 biofilm treated under flow with Retro-Omiganan (half MBEC) for 24 h), 1 µg/mL (≈ 0.617 µM); in the test with S. aureus ATCC 25923 (Staphylococcus aureus, ATCC25923, 48 h, S. aureus 25923 biofilm treated under flow with Omiganan (half MBEC) for 48 h), 2 µg/mL (≈ 1.23 µM); against S. aureus ATCC 25923 (Staphylococcus aureus, ATCC25923, 48 h, S. aureus 25923 biofilm treated under flow with Retro-Omiganan (half MBEC) for 48 h), 1 µg/mL (≈ 0.617 µM); in the test on S. aureus ATCC 25923 (Staphylococcus aureus, ATCC25923, 72 h, S. aureus 25923 biofilm treated under flow with Omiganan (half MBEC) for 72 h), 2 µg/mL (≈ 1.23 µM). Besides, the MIC in the test with S. aureus ATCC 25923 (Staphylococcus aureus, ATCC25923, 72 h, S. aureus 25923 biofilm treated under flow with Retro-Omiganan (half MBEC) for 72 h) was 1 µg/mL (≈ 0.617 µM); in test [1] (setting [19]) it was 1 µg/mL (≈ 0.617 µM); in test [1] (S. aureus ATCC 33591 (MRSA), time 0 h (baseline, before peptide exposure)), 2 µg/mL (≈ 1.23 µM); in test [1] (Staphylococcus aureus, ATCC33591|MRSA, 0 h, S. aureus ATCC 33591 (MRSA), time 0 h (baseline, before peptide exposure)) it was 2 µg/mL (≈ 1.23 µM); in test [1] (Staphylococcus aureus, ATCC33591|MRSA, 24 h, S. aureus ATCC 33591 (MRSA) biofilm treated under flow with Omiganan (half MBEC) for 24 h), 2 µg/mL (≈ 1.23 µM); in test [1] (Staphylococcus aureus, ATCC33591|MRSA, 24 h, S. aureus ATCC 33591 (MRSA) biofilm treated under flow with Retro-Omiganan (half MBEC) for 24 h), 2 µg/mL (≈ 1.23 µM). Further, the MIC in [1] (Staphylococcus aureus, ATCC33591|MRSA, 48 h, S. aureus ATCC 33591 (MRSA) biofilm treated under flow with Omiganan (half MBEC) for 48 h) is 2 µg/mL (≈ 1.23 µM); in [1] (Staphylococcus aureus, ATCC33591|MRSA, 48 h, S. aureus ATCC 33591 (MRSA) biofilm treated under flow with Retro-Omiganan (half MBEC) for 48 h), 1 µg/mL (≈ 0.617 µM); in [1] (Staphylococcus aureus, ATCC33591|MRSA, 72 h, S. aureus ATCC 33591 (MRSA) biofilm treated under flow with Omiganan (half MBEC) for 72 h) it was 2 µg/mL (≈ 1.23 µM); in test [1] (Staphylococcus aureus, ATCC33591|MRSA, 72 h, S. aureus ATCC 33591 (MRSA) biofilm treated under flow with Retro-Omiganan (half MBEC) for 72 h), 1 µg/mL (≈ 0.617 µM). The “Antimicrobial susceptibility (MIC)” value in test [2] is given as 2 µg/mL; in [3] it was 4 µg/mL; in [4], 0.5 µg/mL; in test [5], 2 µg/mL; in test [6], 0.125 µg/mL; in test [7], 0.125 µg/mL. Also, the “Antimicrobial susceptibility (MIC)” value in [8] is 1 µg/mL; in [9], 2 µg/mL; in [10], 0.125 µg/mL.
In the case of `CC(=O)O[C@H]1C[C@@]2(C)[C@@H](C[C@@H](O)[C@H]3[C@@]4(C)CC[C@@H](O)[C@@H](C)[C@@H]4CC[C@@]32C)/C1=C(\CCC=C(C)C)C(=O)O` [Fusidic Acid], the MIC in the test on S. aureus ATCC 25923 (setting [11]), in the test on S. aureus ATCC 25923 (setting [12]), in the test with S. aureus ATCC 25923 (setting [13]), in the test with S. aureus ATCC 25923 (setting [14]), against S. aureus ATCC 25923 (setting [15]) and with S. aureus ATCC 25923 (setting [16]) was not above 0.25 µg/mL throughout. For the same compound, the MIC in the test on S. aureus ATCC 25923 (setting [17]) was not above 0.25 µg/mL; in test [1] (setting [18]), not above 0.25 µg/mL; in [1] (setting [19]) it was not above 0.25 µg/mL; in test [1] (setting [20]), not above 0.25 µg/mL; in test [1] (Staphylococcus aureus, 0 h), not above 0.25 µg/mL; in test [1] (Staphylococcus aureus, 24 h), not above 0.25 µg/mL. Moreover, the MIC in test [1] (Staphylococcus aureus, 48 h) was not above 0.25 µg/mL; in [1] (Staphylococcus aureus, 72 h), not above 0.25 µg/mL. For the same compound, the “Antimicrobial susceptibility (MIC)” value in test [2] was 0.0625 µg/mL; in test [3], 0.0625 µg/mL; in test [4], 2 µg/mL; in test [5], 0.125 µg/mL; in test [6], 0.25 µg/mL; in [7] it was 0.25 µg/mL. The “Antimicrobial susceptibility (MIC)” value in test [8], in test [9] and in [10] was 0.125 µg/mL in each case.
